Results from patent US11965204B2, “Detection of analytes by enzyme-mediated strand displacement reactions” (priority 2020, dated 2024).

B1: MphR: aTF used to sense macrolides; SEQ ID NO: 22 (protein, listed as Escherichia coli)
chain: MPRPKLKSDDEVLEAATVVLKRCGPIEFTLSGVAKEVGLSRAALIQRFTNRDTLLVRMMERGVEQVRHYLNAIPIGAGPQGLWEFLQVLVRSMNTRNDFSVNYLISWYELQVPELRTLAIQRNRAVVEGIRKRLPPGAPAAAELLLHSVIAGATMQWAVDPDGELADHVLAQIAAILCLMFPEHDDFQLLQAHA

Columns and labels:
MphR = test: MphR-based biosensor, derepression by ligand; type: biochemical, E. coli; settings: fixed concentration of MphR; erythromycin 0 nM-2.5 uM; FIG. 10
Description: (§1) Here we present two biosensors built with the described mechanism above. As shown in FIGS. 7A-7B, the aTF TetR (SEQ ID NO: 21) can be used to build a tetracycline biosensor using its corresponding operator sequence in the DNA template and partially in the IP (SEQ ID NO: 19). Increasing concentrations of TetR decrease the rate of the reaction as there is less DNA template accessible to HgaI. When the system is repressed by a given concentration of TetR, it can be derepressed by the ligand tetracycline. The rate of the reaction is proportional to the concentration of tetracycline within a certain concentration range (FIG. 8). Similarly, a circuit using the aTF MphR (SEQ ID NO: 22) with its corresponding operator sequence (SEQ ID NOs: 17 and 18) in the DNA template and partially in the IP (SEQ ID NO: 20) can be used to sense macrolides.
(§2) HgaI/Toehold-Mediated Strand Displacement Reactions.

[1] = tested on: DNA template (S) with MphR operator sequence; test: Titration of MphR in the HgaI/toehold-mediated strand displacement reaction; type: biochemical; settings: absence of erythromycin; MphR 0 nM-3 uM; FIG. 9B
Description: FIG. 9A illustrates the components of the biosensor, indicating the DNA template (S) and Invading Probe (IP) sequences and modifications.
as §1, §2

Row | Molecule | response of the MphR-repressed reaction to the ligand (MphR) | effect of increasing aTF concentration on reaction rate [1]
1 | CC[C@H]1OC(=O)[C@H](C)[C@@H](O[C@H]2C[C@@](C)(OC)[C@@H](O)[C@H](C)O2)[C@H](C)[C@@H](O[C@@H]2O[C@H](C)C[C@H](N(C)C)[C@H]2O)[C@](C)(O)C[C@@H](C)C(=O)[C@H](C)[C@@H](O)[C@]1(C)O [erythromycin] | proportionally higher reaction rates | 
2 | B1 |  | decrease of the reaction rate
